Patent publication US20250230138A1, “COMPOUNDS HAVING A T-STRUCTURE FORMED BY AT LEAST FOUR CYCLES FOR USE IN THE TREATMENT OF CANCER AND OTHER INDICATIONS” (TheRas, Inc., priority 2022, published 2025)
Like-named read-outs stand apart in the source and are kept apart here.

Legend:
pAKT in BT474 cells = test: Cell-based pAKT HTRF assay in BT474 cells; conditions: BT474 cells, 4 hr incubation, read-out: pAKT inhibition IC50 in BT474 cells
In short: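 BT474 cells in DMEM/10% FBS were treated the day after seeding with a 9-point, 3-fold compound series from 3 μM (0.25% DMSO) for 4 hr. Lysates were mixed with d2 and Eu cryptate anti-pAKT antibodies and incubated 4-24 h at room temperature. HTRF was read with excitation at 320 nm and emission at 615 nm.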

[1] = biological target: Cys242 in human PIK3CA (157-299) (Homo sapiens (Human), UniProt P42336); test: Covalent modification assay using MALDI-TOF MS; format: biochemical; conditions: 4 h reaction time point
In short: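 Covalent adduct formation was read by linear-mode MALDI-TOF with sinapinic acid matrix, reported as modified-protein peak height divided by total protein peak heights. Reactions held PIK3CA (157-299) at 1 or 3.33 μM in HEPES/NaCl/MgCl2 buffer, pH 7.3, sampled after 15 min to 4 h at room temperature.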

[2] = 1 μM protein target, 1:5 protein to compound ratio (compounds 853-1279)
[3] = 3.33 μM protein target, 1:7.5 protein to compound ratio (compounds 1-852)

Sequence of Cys242 in human PIK3CA (157-299) (P42336 157-299): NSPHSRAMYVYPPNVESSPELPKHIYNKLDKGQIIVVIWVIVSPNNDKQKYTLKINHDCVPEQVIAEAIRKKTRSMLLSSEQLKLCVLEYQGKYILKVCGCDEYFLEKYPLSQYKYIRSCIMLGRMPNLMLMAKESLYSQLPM

Row | IC50 (pAKT in BT474 cells; Compounds 10-999) | SMILES | % of modification [1, 3] | other results
1 | < 100 nM | C=CC(=O)N1CCn2nc(-c3nc(-c4ccc5c(c4)CCNC5=O)c4ccsc4c3-c3c(F)cc(F)cc3OC[C@@H](C)O)cc2[C@H]1C [Compound 894] |  | % of modification [1, 2]: A (percent of modification of PIK3CA protein ≥75%)
2 | < 100 nM | C=CC(=O)N1CCn2nc(-c3nc(-c4ccc(=O)n(CC(F)F)c4)c4ccsc4c3-c3c(F)cc(F)cc3OCCO)cc2C1C (centres unmarked) [Compound 981] |  | % of modification [1, 2]: A (percent of modification of PIK3CA protein ≥75%)
3 | < 100 nM | C=CC(=O)N1Cc2cc(-c3nc(-c4cn(C)cn4)c4ccsc4c3-c3c(F)cc(F)cc3OC[C@@H](C)O)nn2C[C@H]1C [Compound 745] | A (percent of modification of PIK3CA protein ≥75%) | 
4 | < 100 nM | C=CC(=O)N1Cc2cc(-c3nc(-c4ccc5c(cnn5C)c4)c4ccsc4c3-c3c(F)cc(F)cc3OC[C@@H](C)O)nn2C[C@H]1C [Compound 725] | A (percent of modification of PIK3CA protein ≥75%) | 
5 | 100 to 1000 nM | C=CC(=O)N1CCn2nc(-c3nc(-c4ccc5c(c4)CCN(C)C5=O)c4ccsc4c3-c3c(F)cc(F)cc3OCCOC)cc2[C@@H]1C [Compound 974] |  | % of modification [1, 2]: D (percent of modification <25%)
6 | < 100 nM | C=CC(=O)N1CCn2nc(-c3nc(-c4ccc5nn(C)cc5c4)c4ccsc4c3-c3c(F)cc(F)cc3OCCO)cc2[C@H]1C [Compound 774] | A (percent of modification of PIK3CA protein ≥75%) | 
7 | 100 to 1000 nM | C=CC(=O)N1Cc2cc(-c3nc(-c4cnnc(C)c4)c4ccsc4c3-c3c(F)cc(F)cc3OCCO)nn2C(C)C1 (centres unmarked) [Compound 787] | D (percent of modification <25%) | 
8 | < 100 nM | C=CC(=O)N1CCn2nc(-c3nc(-c4ccc5cnncc5c4)c4ccsc4c3-c3c(F)cc(F)cc3OC[C@@H](C)O)cc2[C@H]1C [Compound 895] |  | % of modification [1, 2]: A (percent of modification of PIK3CA protein ≥75%)

More lines, now with the values behind:

Row | SMILES | IC50 (pAKT in BT474 cells; Compounds 10-999) | % of modification [1, 3] | other results
9 | C=CC(=O)N1CCn2nc(-c3nc(-c4cnc5c(c4)CN(C)CC5)c4c(c3-c3c(F)cc(F)cc3OCCOC)CCC4)cc2C1C (centres unmarked) [Compound 1243] |  |  | IC50 (pAKT in BT474 cells; Compounds 1000-1279): < 100 nM; % of modification [1, 2]: A (percent of modification of PIK3CA protein ≥75%)
10 | C=CC(=O)N1Cc2cc(-c3nc(-c4ccc5c(c4)CCN(C)C5)c4ccsc4c3-c3c(F)cc(F)cc3OCCO)nn2[C@@H](C)C1 [Compound 483] | < 100 nM | A (percent of modification of PIK3CA protein ≥75%) | 
11 | C=CC(=O)N1CCc2ncc(-c3nc(-c4ccc5c(c4)CCNC5)c4ccsc4c3-c3ccc(F)cc3OC)cc2C1 [Compound 86] | < 100 nM | A (percent of modification of PIK3CA protein ≥75%) | 
12 | C=CC(=O)N1CC(n2cc(-c3nc(N4CCc5n[nH]c(=O)cc5C4)c4ccsc4c3-c3ccc(F)cc3OCCOC)cn2)C1 [Compound 158] | 100 to 1000 nM | A (percent of modification of PIK3CA protein ≥75%) | 
13 | C=CC(=O)N1CCn2nc(-c3nc(-c4ccc(=O)n(C)c4)c4ccsc4c3-c3ccc(F)cc3OCCOC)nc2C1 [Compound 205] | < 100 nM | A (percent of modification of PIK3CA protein ≥75%) | 
14 | C=CC(=O)N1CCn2nc(-c3nc(-c4ccc5c(cnn5C)c4)c4ccsc4c3-c3c(F)cc(F)cc3OCCO)cc2C1C (centres unmarked) [Compound 1156] |  |  | IC50 (pAKT in BT474 cells; Compounds 1000-1279): < 100 nM; % of modification [1, 2]: D (percent of modification <25%)
15 | C=CC(=O)N1CCn2nc(-c3nc(-c4cnn(C)c4)ccc3-c3ccc(F)cc3OCCOC)cc2C1 [Compound 322, 1-[2-[3-[4-fluoro-2-(2-methoxyethoxy)phenyl]-6-(1-methylpyrazol-4-yl)-2-pyridyl]-6,7-dihydro-4H-pyrazolo[1,5-a]pyrazin-5-yl]prop-2-en-1-one] |  | C (25%≤percent of modification <50%) | IC50 (pAKT in BT474 cells; Homo sapiens, BT-474, Compounds 10-999): > 3000 nM
16 | C=CC(=O)N1CCn2nc(-c3nc(-c4cncc(OCCN(C)C)c4)c4ccsc4c3-c3c(F)cc(F)cc3OCCOC)cc2C1C (centres unmarked) [Compound 1099] |  |  | IC50 (pAKT in BT474 cells; Compounds 1000-1279): < 100 nM; % of modification [1, 2]: A (percent of modification of PIK3CA protein ≥75%)
17 | C=CC(=O)N1CCn2nc(-c3nc(-c4cnc5c(c4)CN(CCOC)CC5(F)F)c4ccsc4c3-c3c(F)cc(F)cc3OCCOC)cc2C1C (centres unmarked) [Compound 1242] |  |  | IC50 (pAKT in BT474 cells; Compounds 1000-1279): < 100 nM; % of modification [1, 2]: A (percent of modification of PIK3CA protein ≥75%)
18 | C=CC(=O)N1CCc2ncc(-c3nc(-c4ccc(=O)n(C)c4)c4ccsc4c3-c3c(F)cc(F)cc3OCCOC)cc2C1 [Compound 375] | < 100 nM | A (percent of modification of PIK3CA protein ≥75%) | 
19 | C=CC(=O)N1CCn2nc(-c3nc(-c4cccc(C#N)c4)c4ccsc4c3-c3ccc(F)cc3OCCOC)cc2C1 [Compound 270] | < 100 nM | A (percent of modification of PIK3CA protein ≥75%) | 
20 | C=CC(=O)N1CCc2ccc(-c3nc(-c4cnc5c(c4)CN(C)CC5)c4ccsc4c3-c3c(F)cc(F)cc3OCCO)cc2C1 [Compound 498] | < 100 nM | A (percent of modification of PIK3CA protein ≥75%) | 
21 | C=CC(=O)N1CCc2nc(-c3nc(-c4ccc5c(c4)CNC5=O)c4ccsc4c3-c3c(F)cc(F)cc3OCCOC)sc2C1 [Compound 364] | < 100 nM | A (percent of modification of PIK3CA protein ≥75%) | 
22 | C=CC(=O)N1Cc2cc(-c3nc(-c4cncc(C#N)c4)c4ccsc4c3-c3c(F)cc(F)cc3OCCOC)nn2C[C@H]1C [Compound 670] | < 100 nM | A (percent of modification of PIK3CA protein ≥75%) | 
23 | C=CC(=O)N1CC(n2cc(-c3nc(-c4ccnc(N)c4)c4ccsc4c3-c3ccc(F)cc3OCCOC)ccc2=O)C1 [Compound 177] | 100 to 1000 nM | B (50%<percent of modification <75%) | 
24 | C=CC(=O)N1CCn2nc(-c3nc(-c4ccc5c(c4)CN(C)CC5(F)F)c4ccsc4c3-c3c(F)cc(F)cc3OC)cc2C1C (centres unmarked) [Compound 1275] |  |  | IC50 (pAKT in BT474 cells; Compounds 1000-1279): < 100 nM; % of modification [1, 2]: A (percent of modification of PIK3CA protein ≥75%)
25 | C=CC(=O)N1CC(n2cc(-c3nc(C4=CCN(C(C)=O)CC4)c4ccsc4c3-c3ccc(F)cc3OC)cn2)C1 [Compound 298] | 100 to 1000 nM | A (percent of modification of PIK3CA protein ≥75%) | 
26 | C=CC(=O)N1CC[C@@H](n2cc(-c3nc(-c4cnn(CC(F)F)c4)c4ccsc4c3-c3c(F)cc(F)cc3OC(C)C)cn2)C1 [Compound 387] | 100 to 1000 nM | A (percent of modification of PIK3CA protein ≥75%) | 
27 | C=C(F)C(=O)N1CCn2nc(-c3nc(-c4cnc5c(c4)CN(C)CC5)c4ccsc4c3-c3c(F)cc(F)cc3OC(C)C)nc2C1 [Compound 310] | < 100 nM | A (percent of modification of PIK3CA protein ≥75%) | 
28 | C=CC(=O)N1CCc2cc(-c3nc(-c4ccc5c(cnn5C)c4)c4ccsc4c3-c3c(F)cc(F)cc3OCCO)nn2CC1 [Compound 1207, (S)-1-(2-(7-(2,4-difluoro-6-(2-hydroxyethoxy)phenyl)-4-(1-methyl-1H-indazol-5-yl)thieno[3,2-c]pyridin-6-yl)-4,5,7,8-tetrahydro-6H-pyrazolo[1,5-d][1,4]diazepin-6-yl)prop-2-en-1-one] |  |  | IC50 (pAKT in BT474 cells; Homo sapiens, BT-474, Compounds 1000-1279): < 100 nM; % of modification [1, 2]: A (percent of modification of PIK3CA protein ≥75%)
29 | C=CC(=O)N1CCc2nc(-c3nc(-c4ccc5c(c4)CC(N)C5)c4ccsc4c3-c3ccc(F)cc3OCCOC)sc2C1 (centres unmarked) [Compound 156] | < 100 nM | A (percent of modification of PIK3CA protein ≥75%) | 
30 | C=C(F)C(=O)N1CCn2nc(-c3nc(-c4cnc5c(c4)CN(C)CC5)c4ccsc4c3-c3c(F)cc(F)cc3OC(C)C)cc2C1 [Compound 340] | < 100 nM | B (50%<percent of modification <75%) | 
31 | C=CC(=O)N1CCc2nc(-c3nc(-c4ccc5c(c4)C(O)CC5)c4ccsc4c3-c3ccc(F)cc3OCCOC)sc2C1 (centres unmarked) [Compound 152] | < 100 nM | A (percent of modification of PIK3CA protein ≥75%) | 
32 | C=CC(=O)N1CCc2ncc(-c3nc(-c4cccc(C#N)c4)c4ccsc4c3-c3c(F)cc(F)cc3OC(C)C)cc2C1 [Compound 381] | < 100 nM | A (percent of modification of PIK3CA protein ≥75%) | 
33 | C=C(F)C(=O)N1CCn2nc(-c3nc(-c4ccc5c(c4)CCN(C)C5)c4ccsc4c3-c3c(F)cc(F)cc3OCC(C)O)cc2C1 (centres unmarked) [Compound 527] | 100 to 1000 nM | B (50%<percent of modification <75%) | 
34 | C=CC(=O)N1CCn2nc(-c3nc(-c4ccc5c(c4)CN(C)C5=O)c4ccsc4c3-c3c(F)cc(F)cc3OCCOC)cc2[C@H]1C [Compound 539] | < 100 nM | A (percent of modification of PIK3CA protein ≥75%) | 
35 | C=CC(=O)N1CCn2nc(-c3nc(-c4ccc5c(c4)CCN(C(C)C)C5)c4ccsc4c3-c3ccc(F)cc3OC)cc2C1 [Compound 263] | < 100 nM | A (percent of modification of PIK3CA protein ≥75%) | 
36 | C=CC(=O)N1CCc2ncc(-c3nc(-c4cnn(CC(F)F)c4)c4ccsc4c3-c3c(F)cc(F)cc3OC(C)C)cc2C1 [Compound 371] | < 100 nM | A (percent of modification of PIK3CA protein ≥75%) | 
37 | C=CC(=O)N1CCc2ncc(-c3nc(-c4ccc5c(c4)CNC5=O)c4ccsc4c3-c3ccc(F)cc3OC(C)C)cc2C1 [Compound 316] | < 100 nM | A (percent of modification of PIK3CA protein ≥75%) | 
